Experimental data taken from patent US20250144055A1, “METHOD AND COMPOSITION FOR REDUCING MYOPIA PROGRESSION” (THE HONG KONG POLYTECHNIC UNIVERSITY, priority 2023, published 2025).
“And” between values parts separate entries of the source, which are not always exact repeats. Equal entries are not always repeated. Where two headings read alike, the source gives them in different places.

Legend:
[1] = test system: lens-induced myopia (LIM) chicks; experiment: unilateral lens-induced myopia (LIM) chick model, intravitreal injection; format: in vivo, White Leghorn chicks (Gallus gallus)
Protocol: To create a lens-induced myopia (LIM) animal model, concave lenses of −5 D were applied to the White Leghorn chicks (Gallus gallus), hatched from specific pathogen-free eggs (SPF, Jinan, China), until they were ten days old (PN10, baseline). All the animals were raised in standard cages at 25° C. with sufficient food and water daily under the 12 h:12 h light/dark cycle. The central ambient luminance over the cages was maintained at around 260 lux.
Turning to FIG. 1, starting from ten days old (PN10), the LIM chicks received four intravitreal injections in four consecutive days, i.e., PN10, PN11, PN12 and PN13 (s101). LIM chicks were randomly assigned to two groups, including LIM chicks (n=6) with vehicle injection (1% DMSO with 1% β-CDs) (101b) and LIM chicks (n=7) with celastrol injection (74 μM celastrol dissolved in 1% DMSO with 1% β-CDs) (101a), and no gender preference was selected in the experimental groupings. β-CDs were selected as a drug carrier of celastrol because of its doughnut-shaped cavities with hydrophilic outer and hydrophobic inner surfaces to form a complex with the celastrol to enhance the solubility, stability and permeation of celastrol in vivo. The freshly prepared solution (10 μl) was injected monocularly with a 0.3-mL syringe (31-gauge needle, BD Medical, Le Pont deClaix, France) into the vitreous through the sclera, choroid, and retina close to the margin of the upper orbit. Immediately following the first injection on PN10, the LIM chicks' right (or left) eyes were assigned to −5 D lenses (treated eyes 102a), and no lens was attached to the fellow eyes (control eyes 102b) (s102). The treated eyes 102a covered with lens in each LIM chick (unilateral LIM) received the subsequent celastrol injection 101a or vehicle 101b on PN11, PN12 and PN13, whereas there was no treatment for the contralateral (control) eye 102b.
After 7-day LIM (PN17), the lenses were removed for 2 hours (s103). The refractive error and ocular parameters were recorded separately at baseline (PN10), 7-day LIM (PN17), and after 2-hour recovery (PN17+2 hr) using the steak retinoscopy and high-frequency ultrasonography (s104). Refractive errors were detected using a streak retinoscope, and ocular parameters were measured using a high-frequency A-scan ultrasound system with a 30 MHz transducer (Panametrics, Inc., Waltham, MA), respectively, before and after treatments. The spherical equivalent (S.E.) was calculated from the refractive status (S.E.=spherical power+½ cylindrical power). Axial length (AL) was defined from the front of the cornea to the back of the vitreous chamber.
Biometric data obtained from unilateral LIM chicks treated with or without celastrol according to the scheme depicted in Example 1 and FIG. 1 were analyzed. First of all, after the 7-day lens treatment period (PN1, the interocular differences (differences between the lens-treated eyes and the contralateral fellow eyes) were calculated for the three ocular parameters (refractive error, vitreous chamber depth, and axial length), and the results are shown in FIGS. 2A-2C, respectively. Because choroid thickness change is believed to be an indicator of progression to myopia, the choroidal thickness was also measured after a 2-hour recovery, and the results are shown in FIG. 2D. The mean interocular differences and choroidal thickness changes are presented with ±SD. The significance between celastrol and vehicle groups was analyzed using an unpaired t-test with equal variance.

[2] = body weight of unilateral LIM chicks after 7-day LIM; format: in vivo, White Leghorn chicks (Gallus gallus); conditions: after 7-day LIM (PN17), 74 μM intravitreal x4 days
Description: The present disclosure provides a method for reducing myopia progression by administering a therapeutically effective amount of celastrol via intravitreal injection to a vitreous or via a non-invasive route, such as topically to the eye, e.g., as an eye drop containing a therapeutically effective amount of celastrol administered to a cornea or conjunctiva of a subject's eye. […] Change of body weight before and after 7-day LIM and choroidal thickness of a uvea of the celastrol group after 2-hr removal of the lens from the unilateral LIM chicks following the 7-day LIM were also quantified to show no adverse side effect but an increase in choroidal thickness induced by a low-dose celastrol. […] For instance, if celastrol is administered via the intravitreal injection, based on the difference in vitreous volume between the animal model tested and the human being, the human equivalent dose of celastrol could be determined. Taking chicken's vitreous volume as an illustrative example, if the celastrol is administered at about 74 μM via intravitreal injection to the chicken's vitreous, assuming that the vitreous volume of a chicken in general is about 200 μl, based on an estimated human vitreous volume (about 4.5 ml), the human equivalent dose of celastrol via intravitreal injection is determined to be about 1.665 mM. […]

[3] = test system: retinal ganglion cells (RGCs); conditions: cited from earlier work
[4] = test system: neuroendocrine chromaffin cells; conditions: 1 μM celastrol; cited from earlier work

CC1=C(O)C(=O)C=C2C1=CC=C1[C@@]2(C)CC[C@@]2(C)[C@@H]3C[C@](C)(C(=O)O)CC[C@]3(C)CC[C@]12C [celastrol]
interocular difference in refractive error (spherical equivalent), mean±SD ([1]; 74 μM celastrol, 10 μl intravitreal q.d. PN10-PN13, after 7-day LIM (PN17), lens-treated minus fellow eye, n=7): −1.68±2.03 D
choroidal thickness change, mean±SD ([1]; 74 μM intravitreal x4 days, after 2-hour recovery from 7-day LIM (PN17+2 hr), P=0.072 vs vehicle): 65.98±20.89 μm
interocular difference in axial length (AL), mean±SD ([1]; 74 μM intravitreal x4 days, after 7-day LIM (PN17), A-scan, P=0.054 vs vehicle): 0.088±0.109 mm
interocular difference in vitreous chamber depth (VCD), mean±SD ([1]; 74 μM intravitreal x4 days, after 7-day LIM (PN17), A-scan, n=7): 0.190±0.105 mm
inhibition at 74 µM ([1]; Gallus gallus, 168 h, celastrol group vs vehicle group, 74 μM intravitreal, 7-day LIM, read-out: inhibition of myopia based on refractive error data): ~46.3%
averaged shift of relative myopia in interocular difference, vehicle group versus celastrol group (mean) ([1]; after 7-day LIM (PN17)): −1.45 D
enlargement of VCD in vehicle group compared with celastrol group ([1]; after 7-day LIM (PN17), P>0.05): 0.070 mm
numerical elongation of AL in vehicle group compared with celastrol group (mean) ([1]; after 7-day LIM (PN17), P>0.05): 0.174 mm
inhibition of myopia based on axial length data ([1]; celastrol group vs vehicle group, 74 μM intravitreal, 7-day LIM): ~66.4% and ~46.2%
myopia progression ([1]; intravitreal injection at the dose tested (74 μM)): could suppress myopia progression
body weight compared with vehicle group [2]: no retardation of growth regarding body weight
increase in average number of retinal ganglion cells (RGCs) compared to controls ([3]; injection of 1 mg/kg celastrol): approximately 80%
increase in average number of retinal ganglion cells (RGCs) compared to controls ([3]; injection of 5 mg/kg celastrol): ~78%
increase in dopamine [4]: 6 fold
